US6080755A, “1,9-diazabicyclo[4.3.0]nona-3,8-diene derivatives” (Wyeth Lederle Japan, Ltd., priority 1995, dated 2000)

Each molecule was assayed on Isolated Rat Hearts (assay: Cardioprotective Effect in Ischemia/Reperfusion Model of Isolated Rat Hearts). Details: 10^-5 mol of test compound in 0.04% DMSO; 25 min global ischemia, after reperfusion for 30 minutes.
Parameters: species or system Male Sprague-Dawley rats
Description: Cardioprotective Effect in Ischemia/Reperfusion Model of Isolated Rat Hearts:
Male Sprague-Dawley rats (300-500 g) were used. The rats were anesthetized using 40 mg/kg of sodium pentobarbital (i.p.) after treating with heparin (i.v. 1000 U/kg). The hearts were excised and moved quickly to a Langendorlf apparatus where they were perfused with Krebs-Henseleit bicarbonate buffer (118 mM of NaCl; 4.7 mM of KCl; 2.55 mM of CaCl2; 1.18 mM of KH2 PO4; 24.88 mM of NaHCO3; 11.1 mM of glucose) bubbled with mixture gas of 95% oxygen and 5% carbon dioxide at a constant perfusion pressure (75 mmHg). The parameters of cardiac function were determined as follows.
The physiological saline-filled latex balloon was inserted into the left ventricle and connected to a pressure transducer for measurement of left ventricular pressure (LVP). The volume of the balloon was adjusted to produce an LV end-diastolic pressure at 5-10 mmHg. The heart rate was determined with a tachometer and coronary flow was determined with an extra-corporeal electromagnetic flow tube.
For the equilibration, the hearts were perfused for initial 15-20 minutes. Then, treatment with the test compounds was begun 15 minutes before the onset of ischemia. Global ischemia was initiated by shutting off the perfusate flow and this was maintained for 25 minutes. The hearts were submerged in 37° C. buffer during ischemia. Reperfusion was then begun with the test compounds and the hearts were allowed to recover for 30 minutes. The cardiac function was measured before the treatment of the test compounds, before ischemia and after reperfusion. The hearts were treated with 10^-5 mol of the test compounds dissolved in 0.04% of dimethylsulfoxide (DMSO), in comparison with the vehicle, i.e., 0.04% of DMSO alone, in the perfusate.
The cardioprotective effects of the test compounds were evaluated on the basis of the extent of recovery of LVP after reperfusion for 30 minutes.

Row | Molecule | LVDP(%): recovery of LVP, left ventricular developed pressure against the LVP before ischemia as 100% [%]
1 | COC(=O)C1=NN2C(c3ccc(C)cc3)C=CC(c3ccc(C)cc3)C2(C(=O)OC)C1O (centres unmarked) [Compound No. 52, 6,8-Dimethoxycarbonyl-2,5-di-p-tolyl-7-hydroxy-1,9-diazabicyclo[4.3.0]nona-3,8-diene] | 49.3
2 | CCOC(=O)C1=NN2CC(C)=C(C)CC2(C(=O)OCC)C1S (centres unmarked) [Compound No. 82, 6,8-Diethoxycarbonyl-3,4-dimethyl-7-mercapto-1,9-diazabicyclo[4.3.0]nona-3,8-diene] | 61.5
3 | CCN(CC)C(=O)C1=NN2C(c3ccccc3)C=CC(c3ccccc3)C2(C(=O)OC)C1O (centres unmarked) [Compound No. 173, 8-Diethylcarbamoyl-2,5-diphenyl-7-hydroxy-6-methoxycarbonyl-1,9-diazabicyclo[4.3.0]nona-3,8-diene] | 61.0
4 | COC(=O)C1=NN2C(c3ccc([N+](=O)[O-])cc3)C=CC(c3ccc([N+](=O)[O-])cc3)C2(C(=O)OC)C1O (centres unmarked) [Compound No. 53, 6,8-Dimethoxycarbonyl-2,5-di(4-nitro)phenyl-7-hydroxy-1,9-diazabicyclo[4.3.0]nona-3,8-diene] | 60.0
5 | CCOC(=O)C1=NN2CC(C)=C(C)CC2(C(=O)OCC)C1O (centres unmarked) [Compound No. 29, 6,8-Diethoxycarbonyl-3,4-dimethylbicyclo[4.3.0]-1,9-diazanona-3,8-dien-7-ol] | 44.2
6 | CCOC(=O)C1=NN2CC(C)=C(C)CC2(C(=O)OCC)C1N (centres unmarked) [Compound No. 81, 7-Amino-6,8-diethoxycarbonyl-3,4-dimethyl-1,9-diazabicyclo[4.3.0]nona-3,8-diene] | 56.2
7 | COC(=O)C1=NN2C(c3ccccc3)C=CC(c3ccccc3)C2(C(=O)OC)C1O (centres unmarked) [Compound No. 31, 6,8-Dimethoxycarbonyl-2,5-diphenyl-1,9-diazabicyclo [4.3.0]nona-3,8-dien-7-ol] | 85.1
8 | CCCOC(=O)C1=NN2CC(C)=C(C)CC2(C(=O)OCCC)C1O (centres unmarked) [Compound No. 124, 3,4-Dimethyl-6,8-dipropoxycarbonyl-7-hydroxy-1,9-diazabicyclo[4.3.0]nona-3,8-diene] | 84.0
9 | CCCOC(=O)C1=NN2C(c3ccccc3)C=CC(c3ccccc3)C2(C(=O)OCC)C1O (centres unmarked) [Compound No. 139, 2,5-Diphenyl-6-ethoxycarbonyl-7-hydroxy-8-propoxycarbonyl-1,9-diazabicyclo[4.3.0]nona-3,8-diene] | 62.5
10 | 6,8-Diethoxycarbonyl-3(or 4)-methy-1,9-diazabicyclo [4.3.0]nona-3,8-dien-7-ol [Compound No. 35] | 50.6
11 | COC(=O)C1=NN2C(c3ccccc3)C=CC(c3ccccc3)C2(C(=O)OC)C1N (centres unmarked) [Compound No. 94, 7-Amino-6,8-dimethoxycarbonyl-2,5-diphenyl-1,9-diazabicyclo[4.3.0]nona-3,8-diene] | 73.5
12 | COC(=O)C1=NN2C(c3cccc([N+](=O)[O-])c3)C=CC(c3cccc([N+](=O)[O-])c3)C2(C(=O)OC)C1O (centres unmarked) [Compound No. 48, 6,8-Dimethoxycarbonyl-2,5-bis(3-nitrophenyl)-7-hydroxy-1,9-diazabicyclo[4.3.0]nona-3,8-diene] | 72.4
13 | COC(=O)C1=NN2C(c3ccc(C#N)cc3)C=CC(c3ccc(C#N)cc3)C2(C(=O)OC)C1O (centres unmarked) [Compound No. 50, 6,8-Dimethoxycarbonyl-2,5-di(4-cyano)phenyl-7-hydroxy-1,9-diazabicyclo[4.3.0]nona-3,8-diene] | 69.8
14 | COC(=O)C1=NN2C(c3ccc(C(C)=O)cc3)C=CC(c3ccc(C(C)=O)cc3)C2(C(=O)OC)C1O (centres unmarked) [Compound No. 51, 2,5-Bis-(4-acetylphenyl)-6,8-dimethoxycarbonyl-7-hydroxy-1,9-diazabicyclo[4.3.0]nona-3,8-diene] | 55.0
